What all share (type): functional
The test system of test [1] is Streptococcus pneumoniae. The test can be described thus: Antibacterial activity against constitutive macrolide-lincosamide-streptogramin B resistant erm(B) and mef(E)-positive Streptococcus pneumoniae by broth dilution method.
Test [2] concerns Streptococcus pneumoniae. In words: Antibacterial activity against macrolide resistant and mef(E)-positive Streptococcus pneumoniae by broth dilution method. For orientation: In broth dilution the organism is exposed to a series of concentrations in liquid medium.
Test [3] concerns Streptococcus pneumoniae. The test can be described thus: Antibacterial activity against macrolide resistant and mef(I)-positive Streptococcus pneumoniae by broth dilution method.
The subject of test [4] is Streptococcus pneumoniae. In words: Antibacterial activity against constitutive macrolide-lincosamide-streptogramin B resistant and erm(B)-positive Streptococcus pneumoniae by broth dilution method.
The subject of test [5] is Streptococcus pneumoniae. In words: Antibacterial activity against inducible macrolide-lincosamide-streptogramin B resistant erm(B) and mef(E)-positive Streptococcus pneumoniae by broth dilution method.
Test [6] relates to Streptococcus pneumoniae. In words: Antibacterial activity against macrolide resistant and mef-positive Streptococcus pneumoniae by broth dilution method.
The test system of test [7] is Streptococcus pneumoniae. In words: Antibacterial activity against inducible macrolide-lincosamide-streptogramin B resistant and erm(B)-positive Streptococcus pneumoniae by broth dilution method.

By MIC is commonly meant the smallest concentration in the dilution series that meets the test's criterion for growth inhibition.

Values after ≈ are worked out from the molar mass of the structure shown.

Regarding `CCC[C@@H]1C[C@@H](C(=O)N[C@@H]([C@H]2O[C@H](SC)[C@H](O)[C@@H](O)[C@H]2O)[C@H](C)Cl)N(C)C1` [CLINDAMYCIN], the MIC is not below 8 µg/mL in test [1]; 0.015 µg/mL (≈ 0.0353 µM) in test [2]; 0.015 µg/mL (≈ 0.0353 µM) in test [3]; not below 32 µg/mL in test [4]; not below 32 µg/mL in test [5]; 0.03 µg/mL (≈ 0.0706 µM) in test [6]. In test [7], this compound yielded an MIC not below 2 µg/mL.

`CC[C@H]1OC(=O)[C@H](C)[C@@H](O[C@H]2C[C@@](C)(OC)[C@@H](O)[C@H](C)O2)[C@H](C)[C@@H](O[C@@H]2O[C@H](C)C[C@H](N(C)C)[C@H]2O)[C@](C)(O)C[C@@H](C)C(=O)[C@H](C)[C@@H](O)[C@]1(C)O` [ERYTHROMYCIN]: the MIC in test [1] was not below 32 µg/mL; in test [2], 1 µg/mL (≈ 1.36 µM); in test [3], 2 µg/mL (≈ 2.73 µM); in test [4], not below 32 µg/mL; in test [5] it was not below 32 µg/mL; in test [6], 8 µg/mL (≈ 10.9 µM). In addition, in test [7], the MIC was not below 2 µg/mL.

(Values after ChEMBL document CHEMBL1255359, “Mechanisms of macrolide resistance among Streptococcus pneumoniae isolates from Russia” (2008).)
